Data reported in patent publication US11753489B2, “Nanoparticles using anionic polymer, preparation method and composition thereof” (IMGT CO, LTD., priority 2020, dated 2023).
Structures can show the parent of a compound that is named as a salt.

System: Huh7 liver cancer cells
Assay: in vitro cytotoxicity evaluation (viability analysis)
Type: cell-based
Conditions: FIG. 7
Experimental: Viability analysis was performed on Huh7 liver cancer cells to evaluate the toxicity of the prepared nanoparticles. Three groups were evaluated: doxorubicin hydrochloride (dox), particles loaded with doxorubicin (032d), and particles not loaded with doxorubicin (032).

COc1cccc2c1C(=O)c1c(O)c3c(c(O)c1C2=O)C[C@@](O)(C(=O)CO)C[C@@H]3O[C@H]1C[C@H](N)[C@H](O)[C@H](C)O1 [doxorubicin hydrochloride]
cell viability / cancer cell killing effect: cancer cell killing effect in a concentration-dependent manner
